Activity calls are given as the source filed them. The rule behind the calls is not given here.
Columns and labels:
MDA-MB-231 [1] = assay: Antiproliferative activity against human MDA-MB-231 cells transfected with LY6K-ShRNA2 at 100 uM assessed as induction of cells death and measured after 24 hrs by Cell Titer Blue assay relative to control; format: functional, cell-based
[2] = target: Mothers against decapentaplegic homolog 2/homolog 3 (Homo sapiens) (UniProt P84022+Q15796); assay: Inhibition of TGF-beta1-induced Smad2/3 phopshorylation in human MDA-MB-231 cells at 2 uM measured after 30 mins by Western blot analysis; format: cell-based
Sequence of Mothers against decapentaplegic homolog 2/homolog 3 (Homo sapiens) (P84022 whole entry, looked up): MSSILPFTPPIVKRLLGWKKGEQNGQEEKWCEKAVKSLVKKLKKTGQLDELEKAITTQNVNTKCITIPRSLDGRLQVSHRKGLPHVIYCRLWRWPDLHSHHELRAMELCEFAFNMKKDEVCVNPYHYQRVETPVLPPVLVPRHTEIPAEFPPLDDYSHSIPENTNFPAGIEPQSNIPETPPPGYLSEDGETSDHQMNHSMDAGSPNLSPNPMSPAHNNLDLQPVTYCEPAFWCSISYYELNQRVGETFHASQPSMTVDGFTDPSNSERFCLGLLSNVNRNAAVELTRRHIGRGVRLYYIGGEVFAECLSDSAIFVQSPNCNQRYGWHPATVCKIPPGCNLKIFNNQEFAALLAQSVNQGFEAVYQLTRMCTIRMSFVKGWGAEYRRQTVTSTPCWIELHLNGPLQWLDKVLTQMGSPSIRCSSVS
Sequence of Mothers against decapentaplegic homolog 2/homolog 3 (Homo sapiens) (Q15796 whole entry, looked up): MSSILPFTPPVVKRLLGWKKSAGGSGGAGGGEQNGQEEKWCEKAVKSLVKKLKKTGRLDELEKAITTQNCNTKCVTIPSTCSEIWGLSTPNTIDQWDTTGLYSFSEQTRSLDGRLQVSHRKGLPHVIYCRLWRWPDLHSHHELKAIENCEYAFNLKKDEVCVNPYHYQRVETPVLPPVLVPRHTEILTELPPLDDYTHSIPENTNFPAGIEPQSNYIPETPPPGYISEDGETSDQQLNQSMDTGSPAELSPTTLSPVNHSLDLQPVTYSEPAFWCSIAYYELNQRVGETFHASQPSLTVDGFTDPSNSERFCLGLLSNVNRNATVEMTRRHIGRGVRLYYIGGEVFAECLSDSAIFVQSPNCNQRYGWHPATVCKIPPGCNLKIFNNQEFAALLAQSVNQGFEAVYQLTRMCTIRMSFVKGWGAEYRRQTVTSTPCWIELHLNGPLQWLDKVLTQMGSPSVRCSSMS

4T1 [3] = assay: Antitumor activity against mouse 4T1 cells allografted in syngenetic BALB/c mouse assessed as tumor growth inhibition at 5 mg/kg, IT(Intratumoral) measured at day 11; format: functional, organism-based; conditions: time 11.0 day
MDA-MB-231 [4] = assay: Down-regulation of PD-L1 expression in human MDA-MB-231 cells at 2 uM measured after 30 mins by Western blot analysis; format: functional, cell-based
[5] = target: T1, Signal transducer and activator of transcription 1-alpha/beta (Homo sapiens) (UniProt P42224); assay: Inhibition of IFN-gamma-induced Stat1 phopshorylation in human MDA-MB-231 cells at 2 uM measured after 30 mins by Western blot analysis; format: cell-based
T1 sequence (whole entry): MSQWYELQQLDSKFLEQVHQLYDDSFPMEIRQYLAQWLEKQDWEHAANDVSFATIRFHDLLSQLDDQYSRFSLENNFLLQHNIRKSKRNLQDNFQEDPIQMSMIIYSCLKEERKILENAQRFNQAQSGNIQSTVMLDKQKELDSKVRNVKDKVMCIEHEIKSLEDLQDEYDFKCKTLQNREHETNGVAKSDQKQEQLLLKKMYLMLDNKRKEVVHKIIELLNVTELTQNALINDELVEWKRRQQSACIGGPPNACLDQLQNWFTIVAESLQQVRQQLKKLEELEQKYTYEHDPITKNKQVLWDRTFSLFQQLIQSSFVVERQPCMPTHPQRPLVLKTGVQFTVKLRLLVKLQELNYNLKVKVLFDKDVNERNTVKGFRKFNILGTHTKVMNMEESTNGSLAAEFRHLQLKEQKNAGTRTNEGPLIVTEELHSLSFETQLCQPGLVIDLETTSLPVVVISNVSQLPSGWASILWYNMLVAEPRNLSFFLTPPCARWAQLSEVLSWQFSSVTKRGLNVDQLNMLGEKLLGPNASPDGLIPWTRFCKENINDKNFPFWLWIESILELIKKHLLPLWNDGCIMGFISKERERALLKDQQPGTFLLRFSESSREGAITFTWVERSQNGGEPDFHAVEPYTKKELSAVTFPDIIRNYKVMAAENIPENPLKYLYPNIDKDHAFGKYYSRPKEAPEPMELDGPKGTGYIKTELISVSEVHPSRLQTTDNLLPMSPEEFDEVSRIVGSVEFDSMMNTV

MDA-MB-231 [6] = assay: Antiproliferative activity against human MDA-MB-231 cells at 100 uM assessed as induction of cells death and measured after 24 hrs by Cell Titer Blue assay relative to control; format: functional, cell-based
4T1 [7] = assay: Induction of apoptosis in mouse 4T1 cells at 0.1 to 5 uM assessed as increase in PARP cleavage measured after 16 hrs by Western blot analysis; format: functional, cell-based; conditions: dose 0.1-5 µM
MDA-MB-231 [8] = assay: Antiproliferative activity against human MDA-MB-231 cells after 24 hrs by Cell Titer Blue assay; format: functional, cell-based; conditions: MDA-MB-231, 24 h
4T1 [9] = assay: Antitumor activity against mouse 4T1 cells xenografted mouse assessed as decrease in Cd11b and Gr-1-dual positive […] in peripheral blood at 50 mg/kg, iv; format: functional, organism-based
MDA-MB-231 [10] = assay: Antiproliferative activity against human MDA-MB-231 cells transfected with LY6K-ShRNA2 at 2 uM assessed as induction of cells death and measured after 24 hrs by Cell Titer Blue assay relative to control; format: functional, cell-based
4T1 [11] = assay: Induction of apoptosis in mouse 4T1 cells at 0.1 to 5 uM assessed as activation of caspase-7 measured after 16 hrs by Western blot analysis; format: functional, cell-based; conditions: dose 0.1-5 µM
OVCAR-8 = assay: Antiproliferative activity against human OVCAR-8 cells after 24 hrs by Cell Titer Blue assay; format: functional, cell-based; conditions: OVCAR-8, 24 h
BT-549 = assay: Antiproliferative activity against human BT-549 cells after 24 hrs by Cell Titer Blue assay; format: functional, cell-based; conditions: BT-549, 24 h
MDA-MB-231 [12] = assay: Antiproliferative activity against human MDA-MB-231 cells at 2 uM assessed as induction of cells death and measured after 24 hrs by Cell Titer Blue assay relative to control; format: functional, cell-based
4T1 [13] = assay: Antitumor activity against mouse 4T1 cells xenografted mouse assessed as decrease in myeloid-derived suppressor cells (MDSCs) in peripheral blood at 50 mg/kg, iv; format: functional; design: scale not given: the % may be the effect or the level left
E0771 = assay: Antitumor immunity in C57BL/6 mouse xenografted with mouse EO771 cells assessed as reduction in tumor growth at 10 mg/kg, ip administered every 3rd day; format: functional, organism-based; conditions: time 3.0 day
4T1 [14] = assay: Induction of autophagy in mouse 4T1 cells at 0.1 to 5 uM assessed as activation of LC3B measured after 16 hrs by Western blot analysis; format: functional, cell-based; conditions: dose 0.1-5 µM
4T1 [15] = assay: Antitumor activity against mouse 4T1 cells allografted in syngenetic BALB/c mouse assessed as tumor growth inhibition at 5 mg/kg, IT(Intratumoral) measured at day 3; format: functional, organism-based; conditions: time 3.0 day
4T1 [16] = assay: Down regulation of RhoA in mouse 4T1 cells at 0.1 to 5 uM measured after 16 hrs by Western blot analysis; format: functional, cell-based; conditions: dose 0.1-5 µM
Hs-578T = assay: Antiproliferative activity against human Hs-578T cells after 24 hrs by Cell Titer Blue assay; format: functional, cell-based
4T1 [17] = assay: Effect on total Ly6K levels in mouse 4T1 cells at 0.1 to 5 […] measured by Western blotting analysis; format: functional, cell-based; conditions: dose 0.1-5 mM
4T1 [18] = assay: Induction of apoptosis in mouse 4T1 cells at 0.1 to 5 uM assessed as activation of caspase-3 measured after 16 hrs by Western blot analysis; format: functional, cell-based; conditions: dose 0.1-5 µM

## Oc1ccc(Cc2ccc(Cl)cc2)c(O)c1
MDA-MB-231 [1]
  Activity: Active
[2]
  Activity: inactive
4T1 [3]
  Activity: Active
MDA-MB-231 [4]
  Activity: inactive
[5]
  Activity: inactive
MDA-MB-231 [6]
  Activity: Active

## CCS(=O)(=O)Nc1ccc(Nc2c3ccccc3nc3ccccc23)c(OC)c1
4T1 [7]
  Activity: Active
MDA-MB-231 [8]
  IC50: 5.68 µM
[2]
  Activity: Active
4T1 [9]
  Activity: Active
MDA-MB-231 [10]
  Activity: inactive
4T1 [11]
  Activity: Active
OVCAR-8
  IC50: 4.17 µM
BT-549
  IC50: 7.65 µM
MDA-MB-231 [12]
  Activity: Active
4T1 [13]
  Activity: 90%
E0771
  Activity: Active
4T1 [14]
  Activity: Active
MDA-MB-231 [4]
  Activity: Active
4T1 [15]
  Activity: Active
4T1 [16]
  Activity: Active
Hs-578T
  IC50: 7.31 µM
[5]
  Activity: Active
4T1 [17]
  Activity: Active
4T1 [18]
  Activity: Active
